Bounds are passed on as bounds.

In general, EC50 refers to the concentration giving half of the maximal effect. High values mean a less potent agent, low ones a more potent agent.

Chain of cellular IDO1 in HeLa cells (P14902 whole entry): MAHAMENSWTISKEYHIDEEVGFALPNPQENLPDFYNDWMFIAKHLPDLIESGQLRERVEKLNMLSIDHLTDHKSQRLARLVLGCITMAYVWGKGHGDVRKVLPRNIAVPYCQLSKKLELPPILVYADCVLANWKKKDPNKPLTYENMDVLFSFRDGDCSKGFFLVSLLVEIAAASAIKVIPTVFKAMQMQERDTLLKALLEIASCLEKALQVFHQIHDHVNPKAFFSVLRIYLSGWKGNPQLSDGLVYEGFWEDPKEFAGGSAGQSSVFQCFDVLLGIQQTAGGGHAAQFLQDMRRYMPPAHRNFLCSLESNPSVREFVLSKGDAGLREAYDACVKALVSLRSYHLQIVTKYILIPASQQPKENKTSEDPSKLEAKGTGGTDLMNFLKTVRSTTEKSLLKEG

In this assay the target is cellular IDO1 in HeLa cells (Homo sapiens (Human), UniProt P14902). Description: HeLa Cell-Based IDO1 Kyn (Kynurenine) Production Assay. The note with it: IFN-γ induced IDO1, 48 hours incubation, Kyn absorbance at 480 nm. As to the method: HeLa Cell-Based IDO1 Kyn (Kynurenine) Production Assay:
The inhibitory activity of IDO1 inhibitors is determined by using a colorimetric reaction to measure Kyn generated from L-Trp (L-Tryptophon) oxidation by cellular IDO1 in HeLa cells after induction of IDO1 expression by IFN-γ.
Hela cells were obtained from the American Type Culture Collection and recovered in 10% FBS-containing phenol red-free DMEM medium. Cells were plated onto a 96-well plate (100 μl/well) at 8000 cells per well and kept at 37° C. in a humidified incubator supplied with 5% CO2. 4 hours later, Human recombinant IFN-γ (8901SC, CST) was added to cells (final concentration 100 ng/mL) to stimulate endogenous IDOL. Compounds at different concentrations diluted in dimethylsulfoxide (DMSO) were added simultaneously with IFN-γ and 0.4 mM L-Trp. Cells were kept at 37° C. in a humidified incubator supplied with 5% CO2. After 48 hours of incubation, 100 μl supernatant from each well was removed to a new plate. The protein in the medium was precipitated with the addition of 8 μl 6N trichloroacetic acid. The plate was incubated at 60° C. for 30 minutes and then centrifugation at 2500 rpm for 10 minutes to remove sediments. 80 μl supernatants were carefully removed to a new clean plate and added with an equal volume of 2% 4-(Dimethylamino)benzaldehyde (D2004, sigma) dissolved in glacial acetic acid. The absorbance at 480 nm wavelength derived from Kyn was measured using a PHERAstar FS plate reader (BMG LABTECH). The IC5C for each compound was derived from fitting the dose-response data to the four-parameter logistic model by using XLfit software (IDBS).
Turning to `CC(c1nc2cc(C(=O)NCC3(O)CCC3)ccc2[nH]1)[C@H]1CC[C@H](c2ccnc3ccc(F)cc32)CC1` (stereo partly drawn) [Example B184, 2-(1-((1r,4r)-4-(6-fluoroquinolin-4-yl)cyclohexyl)ethyl)-N-((1-hydroxycyclobutyl)methyl)-1H-benzo[d]imidazole-5-carboxamide], the 50% effective concentration (EC50) is > 1000 nM.
For `CON(C)C(=O)c1ccc2nc([C@H](C)[C@H]3CC[C@@H](c4ccnc5ccc(F)cc54)CC3)[nH]c2c1` [Example B196] the value was 26.5 nM; for `Cc1cc(C(=O)NC2CCC2)cc2nc([C@@H](C)[C@H]3CC[C@@H](c4ccnc5ccc(F)cc54)CC3)[nH]c12` [B188], 788 nM; for `Fc1ccc2[nH]c([C@H]3CC[C@H](c4ccnc5ccc(F)cc54)CC3)nc2c1` [Example C5a, 6-fluoro-4-((1r,4r)-4-(5-fluoro-1H-benzo[d]imidazol-2-yl)cyclohexyl)quinoline], 1430 nM.
With `CCOC(=O)c1ccc2[nH]c(C(C)[C@H]3CC[C@@H](c4ccnc5ccc(F)cc54)CC3)nc2c1` (stereo partly drawn) [B161] the figure was 1.6 nM; with `Fc1ccc(C2CCC(Cc3nc4cc(Cl)ccc4[nH]3)CC2)c2ncccc12` (stereo not drawn) [Example A24, 8-(4-((5-chloro-1H-benzo[d]imidazol-2-yl)methyl)cyclohexyl)-5-fluoroquinoline], 158 nM.
Compound `C[C@H](c1nc2cc(-c3ccccc3)c(F)cc2[nH]1)[C@H]1CC[C@@H](c2ccnc3ccc(F)cc32)CC1` [B219] had an EC50 of 13.7 nM.
With `C[C@@H](c1nc2c(F)cc(F)c(Cl)c2[nH]1)[C@H]1CC[C@@H](c2ccnc3ccc(F)cc32)CC1` [Example B204, 4-((1R,4s)-4-((S)-1-(7-chloro-4,6-difluoro-1H-benzo[d]imidazol-2-yl)ethyl)cyclohexyl)-6-fluoroquinoline] the figure was 6.79 nM; with `C[C@@H](c1nc2c(F)cc(F)c(F)c2[nH]1)[C@H]1CC[C@@H](c2ccnc3ccc(F)cc32)CC1` [Example B5, 6-fluoro-4-((1S,4s)-4-((R)-1-(4,6,7-trifluoro-1H-benzo[d]imidazol-2-yl)ethyl)cyclohexyl)quinoline], 1.4 nM; with `CC(c1nc2ccc(N)cc2[nH]1)[C@H]1CC[C@@H](c2ccnc3ccc(F)cc32)CC1` (stereo partly drawn) [Example B169, 2-(1-((1s,4s)-4-(6-fluoroquinolin-4-yl)cyclohexyl)ethyl)-1H-benzo[d]imidazol-6-amine], 19.6 nM.
For `CC(c1nc2cc3c(=O)[nH]cnc3cc2[nH]1)[C@H]1CC[C@@H](c2ccnc3ccc(F)cc32)CC1` (stereo partly drawn) [Example B151, 2-(1-((1s,4s)-4-(6-fluoroquinolin-4-yl)cyclohexyl)ethyl)-3,7-dihydro-8H-imidazo[4,5-g]quinazolin-8-one] the value was 82.3 nM; for `COC(=O)c1ccc(C(F)(F)F)c2[nH]c(C(C)[C@H]3CC[C@@H](c4ccnc5ccc(F)cc54)CC3)nc12` (stereo partly drawn) [Example B207], 18.4 nM.
For the compound `CC(c1nc2cc(C(=O)NCC3(O)CCC3)ccc2[nH]1)[C@H]1CC[C@@H](c2ccnc3ccc(F)cc32)CC1` (stereo partly drawn) [Example B183, 2-(1-((1s,4s)-4-(6-fluoroquinolin-4-yl)cyclohexyl)ethyl)-N-((1-hydroxycyclobutyl)methyl)-1H-benzo[d]imidazole-5-carboxamide], the EC50 was > 1000 nM.
With `CC(c1nc2cc3ccccc3cc2[nH]1)[C@H]1CC[C@@H](c2ccnc3ccc(F)cc32)CC1` (stereo partly drawn) [Example B166, 2-(1-((1s,4s)-4-(6-fluoroquinolin-4-yl)cyclohexyl)ethyl)-1H-naphtho[2,3-d]imidazole] the figure was 251 nM; with `CC(C)OC(=O)c1ccc2nc([C@H](C)[C@H]3CC[C@@H](c4ccnc5ccc(F)cc54)CC3)[nH]c2c1` [B176], 2.9 nM; with `C[C@@H](c1nc2cc(-c3ccccc3)c(F)cc2[nH]1)[C@H]1CC[C@@H](c2ccnc3ccc(F)cc32)CC1` [B156], 3.1 nM.
With `C[C@@H](c1nc2ccc(NS(C)(=O)=O)cc2[nH]1)[C@H]1CC[C@@H](c2ccnc3ccc(F)cc32)CC1` [Example B136, N-(2-((R)-1-((1s,4S)-4-(6-fluoroquinolin-4-yl)cyclohexyl)ethyl)-1H-benzo[d]imidazol-6-yl)methanesulfonamide] the figure was 296 nM; with `Fc1ccc2nccc([C@H]3CC[C@@H](c4nc5cc(F)c(F)cc5[nH]4)CC3)c2c1` [Example C7b, 4-((1s,4s)-4-(5,6-difluoro-H-benzo[d]imidazol-2-yl)cyclohexyl)-6-fluoroquinoline], 70 nM.
`C[C@@H](c1nc2c(F)cc(F)c(Cl)c2[nH]1)[C@H]1CC[C@H](c2ccnc3ccc(F)cc32)CC1` [Example B205, 4-((1R,4r)-4-((R)-1-(7-chloro-4,6-difluoro-1H-benzo[d]imidazol-2-yl)ethyl)cyclohexyl)-6-fluoroquinoline]: the EC50 was found to be 28.9 nM.
For `Cc1noc(-c2ccc3nc([C@H](C)[C@H]4CC[C@@H](c5ccnc6ccc(F)cc65)CC4)[nH]c3c2)n1` [Example B220, 5-(2-((R)-1-((1s,4S)-4-(6-fluoroquinolin-4-yl)cyclohexyl)ethyl)-1H-benzo[d]imidazol-6-yl)-3-methyl-1,2,4-oxadiazole] the value was 0.96 nM.
As for `Fc1ccc2nccc(C3CCC(Cc4nc5cc(N6CCCCC6)c(Br)cc5[nH]4)CC3)c2c1` (stereo not drawn) [Example A16, 4-(4-((6-bromo-5-(piperidin-1-yl)-1H-benzo[d]imidazol-2-yl)methyl)cyclohexyl)-6-fluoroquinoline], the EC50 stood at 251 nM.
With `CC(=O)c1ccc2nc([C@H](C)[C@H]3CC[C@@H](c4ccnc5ccc(F)cc54)CC3)[nH]c2c1` [Example B202, 1-(2-((R)-1-((1s,4S)-4-(6-fluoroquinolin-4-yl)cyclohexyl)ethyl)-1H-benzo[d]imidazol-6-yl)ethan-1-one] the figure was 2.9 nM.
With `NC(=O)c1ccc2[nH]c([C@H]3CC[C@H](c4ccnc5ccc(F)cc54)CC3)nc2c1` [Example C9a, 2-((1r,4r)-4-(6-fluoroquinolin-4-yl)cyclohexyl)-1H-benzo[d]imidazole-5-carboxamide] the figure was > 10000 nM; with `COC(=O)c1ccc2[nH]c([C@H](C)[C@H]3CC[C@@H](c4ccnc5ccc(F)cc54)CC3)nc2c1` [Example B3b, methyl 2-((R)-1-((1s,4S)-4-(6-fluoroquinolin-4-yl)cyclohexyl)ethyl)-1H-benzo[d]imidazole-5-carboxylate], 81 nM.
For `CC(c1nc2cc(C(=O)Nc3ccccc3)ccc2[nH]1)[C@H]1CC[C@@H](c2ccnc3ccc(F)cc32)CC1` (stereo partly drawn) [Example B182, 2-(1-((1s,4s)-4-(6-fluoroquinolin-4-yl)cyclohexyl)ethyl)-N-phenyl-1H-benzo[d]imidazole-5-carboxamide] the value was 86.7 nM; for `Fc1ccc2nccc(C3CCC(Cc4nc5cc(CN6CCCCC6)ccc5[nH]4)CC3)c2c1` (stereo not drawn) [Example A15, 6-fluoro-4-(4-((5-(piperidin-1-ylmethyl)-1H-benzo[d]imidazol-2-yl)methyl)cyclohexyl)quinoline], 1950 nM; for `COc1cc2nc(CC3CCC(c4ccnc5ccc(F)cc45)CC3)[nH]c2cc1Br` (stereo not drawn) [Example A17, 4-(4-((6-bromo-5-methoxy-1H-benzo[d]imidazol-2-yl)methyl)cyclohexyl)-6-fluoroquinoline], 5 nM.
On to `C[C@@H](c1nc2ccc(S(C)(=O)=O)cc2[nH]1)[C@H]1CC[C@@H](c2ccnc3ccc(F)cc32)CC1` [Example B138, 6-fluoro-4-((1S,4s)-4-((R)-1-(6-(methylsulfonyl)-1H-benzo[d]imidazol-2-yl)ethyl)cyclohexyl)quinoline], for which it took 18.8 nM to reach a half-maximal effect (EC50).
The compound `C[C@H](c1nc2ccc(Cl)cc2[nH]1)C1CCC(c2cnc3ccccc3c2)CC1` (stereo partly drawn) [Example B25a, (S)-3-(4-(1-(6-chloro-1H-benzo[d]imidazol-2-yl)ethyl)cyclohexyl)quinoline] yielded an EC50 of 5.1 nM.
With `COC(=O)c1ccc2[nH]c([C@@H](C)[C@H]3CC[C@@H](c4ccnc5ccc(F)cc54)CC3)nc2c1` [Example B3a, methyl 2-((S)-1-((1s,4R)-4-(6-fluoroquinolin-4-yl)cyclohexyl)ethyl)-1H-benzo[d]imidazole-5-carboxylate] the figure was 0.55 nM; with `C[C@@H](c1nc2c(F)c(F)cc(Cl)c2[nH]1)[C@H]1CC[C@@H](c2ccnc3ccc(F)cc32)CC1` [Example B124, 4-((1S,4s)-4-((R)-1-(7-chloro-4,5-difluoro-1H-benzo[d]imidazol-2-yl)ethyl)cyclohexyl)-6-fluoroquinoline], 16.4 nM; with `Clc1ccc2[nH]c(CC3CCC(c4ccncc4)CC3)nc2c1` (stereo not drawn) [Example A28, 5-chloro-2-((4-(pyridin-4-yl)cyclohexyl)methyl)-1H-benzo[d]imidazole], 1810 nM.
Take `Cc1noc(-c2ccc3nc([C@@H](C)[C@H]4CC[C@@H](c5ccnc6ccc(F)cc65)CC4)[nH]c3c2)n1` [B149]: the EC50 stood at 0.96 nM.
